Publication PMC6386617 (Molecular cell, 2018)

Key:
[1] = molecular target: human eIF4A1 (WT) (Homo sapiens, UniProt P60842); experiment: UV crosslinking of γ […]-ATP; format: biochemical; details: 10 μM protein, 0.1 μM ATP, 37 °C (crosslinking); labelled compound
[2] = molecular target: human eIF4A1 (WT) (Homo sapiens, UniProt P60842, F163L/I199M); experiment: UV crosslinking of γ […]-ATP; format: biochemical; details: 10 μM protein, 0.1 μM ATP, 37 °C (crosslinking); labelled compound
[3] = molecular target: eIF4A1 (19-406) (Homo sapiens, UniProt P60842 19-406); experiment: X-ray crystallography
Chain of eIF4A1 (19-406) (P60842 19-406): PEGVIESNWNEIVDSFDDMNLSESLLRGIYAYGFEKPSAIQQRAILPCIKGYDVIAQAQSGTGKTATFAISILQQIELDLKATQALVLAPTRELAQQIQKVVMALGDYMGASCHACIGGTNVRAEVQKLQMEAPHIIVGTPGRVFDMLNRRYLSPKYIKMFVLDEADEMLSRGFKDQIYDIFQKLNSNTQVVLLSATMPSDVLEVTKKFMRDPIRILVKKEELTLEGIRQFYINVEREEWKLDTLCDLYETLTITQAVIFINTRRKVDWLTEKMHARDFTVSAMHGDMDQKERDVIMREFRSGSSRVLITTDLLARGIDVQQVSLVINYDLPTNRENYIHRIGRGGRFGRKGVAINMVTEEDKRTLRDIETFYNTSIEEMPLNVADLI

Chain of human eIF4A1 (WT) (Homo sapiens, UniProt P60842) (P60842 2-406): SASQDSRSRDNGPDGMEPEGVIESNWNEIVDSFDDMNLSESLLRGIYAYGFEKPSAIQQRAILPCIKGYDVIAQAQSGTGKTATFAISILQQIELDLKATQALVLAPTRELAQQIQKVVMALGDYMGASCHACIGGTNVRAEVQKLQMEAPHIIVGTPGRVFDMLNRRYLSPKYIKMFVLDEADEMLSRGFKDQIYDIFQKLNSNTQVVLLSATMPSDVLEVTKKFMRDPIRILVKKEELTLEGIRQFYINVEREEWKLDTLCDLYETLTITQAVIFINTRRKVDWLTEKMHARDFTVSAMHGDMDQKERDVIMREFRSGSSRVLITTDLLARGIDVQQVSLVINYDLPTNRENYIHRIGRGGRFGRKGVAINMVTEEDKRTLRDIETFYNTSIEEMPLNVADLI
Chain of human eIF4A1 (WT) (Homo sapiens, UniProt P60842, F163L/I199M) (P60842 2-406 F163L/I199M): as the sequence (P60842 2-406) above, with F162L, I198M counted along it

Molecule | UV crosslinking of γ 32P-ATP; TLC ATPase assay [1] | UV crosslinking of γ 32P-ATP; TLC ATPase assay [2] | binding result [3]
Nc1ncnc2c1ncn2[C@@H]1O[C@H](COP(=O)(O)OP(=O)(O)OP(=O)(O)O)[C@@H](O)[C@H]1O [ATP] | tested a variety of their biochemical properties: ATP binding, ATP hydrolysis | neither single nor double mutations disrupt the basic features of eIF4A1 | –
AGAGAGAGAG (ssRNA) [(AG)5 polypurine RNA] | – | – | binds
